# Reference: patent publication US8791102B2, “Acetanilide sphingosine-1-phosphate receptor antagonists” (Exelixis, Inc., priority 2008, dated 2014)
# pIC50: −log10 of the molar value.
# Biological target: T1, human S1P1 receptors (Homo sapiens, UniProt P21453)
# T1 construct: host or cells: HEK293
# Assay: S1P1R antagonist assay (fluorescent membrane potential dye, cAMP readout)
# Format: cell-based
# Settings: HEK293 cells expressing human S1P1 receptors and CNG channel; 500 nM NECA; S1P1R agonist 10 nM; 90 minutes; read-out: EC50 or IC50 value
# T1 sequence (P21453 whole entry): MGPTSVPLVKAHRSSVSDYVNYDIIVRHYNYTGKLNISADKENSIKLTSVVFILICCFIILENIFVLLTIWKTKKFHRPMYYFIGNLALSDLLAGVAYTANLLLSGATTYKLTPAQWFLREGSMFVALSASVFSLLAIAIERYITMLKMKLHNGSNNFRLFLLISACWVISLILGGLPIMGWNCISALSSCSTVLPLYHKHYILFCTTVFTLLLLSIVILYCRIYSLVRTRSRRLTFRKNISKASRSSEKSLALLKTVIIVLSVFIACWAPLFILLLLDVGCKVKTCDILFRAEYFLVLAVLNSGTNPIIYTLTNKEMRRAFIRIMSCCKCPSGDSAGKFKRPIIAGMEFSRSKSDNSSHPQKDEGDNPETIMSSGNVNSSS
row,pIC50,SMILES
1,6.00 to 6.52,"O=C(CCCc1cccs1)NC(COCc1ccccc1)C(=O)Nc1ccc(Oc2ccccc2)cc1 (stereo not shown) [Compound 325, N-(2-oxo-1-{[(phenylmethyl)oxy]methyl}-2-{[4-(phenyloxy)phenyl]amino}ethyl)-4-(2-thienyl)butanamide]"
2,≥ 6.52,"O=C(NC(COCc1ccccc1)C(=O)Nc1ccc(Oc2ccccc2)cc1)c1ccc([N+](=O)[O-])o1 (stereo not shown) [Compound 326, 5-nitro-N-(2-oxo-1-{[(phenylmethyl)oxy]methyl}-2-{[4-(phenyloxy)phenyl]amino}ethyl)furan-2-carboxamide]"
3,6.00 to 6.52,CC/C=C/CC(=O)NC(COCc1ccccc1)C(=O)Nc1ccc(Oc2ccccc2)cc1 (stereo not shown) [Compound 327]
4,< 6.00,"O=C(Cc1ccc2c(c1)OCO2)NC(COCc1ccccc1)C(=O)Nc1ccc(Oc2ccccc2)cc1 (stereo not shown) [Compound 328, N-(2-oxo-1-{[(phenylmethyl)oxy]methyl}-2-{[4-(phenyloxy)phenyl]amino}ethyl)-1,3-benzodioxol-5-ylacetamide]"
5,< 6.00,"O=C(Nc1ccc(Oc2ccccc2)cc1)C(COCc1ccccc1)NC(=O)C1(c2c(F)cccc2Cl)CCCC1 (stereo not shown) [Compound 329, 1-(2-chloro-6-fluorophenyl)-N-(2-oxo-1-{[(phenylmethyl)oxy]methyl}-2-{[4-(phenyloxy)phenyl]amino}ethyl)cyclopentanecarboxamide]"
6,< 6.00,"O=C(NC(COCc1ccccc1)C(=O)Nc1ccc(Oc2ccccc2)cc1)c1ccc(F)cc1C(F)(F)F (stereo not shown) [Compound 330, 4-fluoro-N-(2-oxo-1-{[(phenylmethyl)oxy]methyl}-2-{[4-(phenyloxy)phenyl]amino}ethyl)-2-(trifluoromethyl)benzamide]"
7,< 6.00,"O=C(CSc1ncccn1)NC(COCc1ccccc1)C(=O)Nc1ccc(Oc2ccccc2)cc1 (stereo not shown) [Compound 331, N-(2-oxo-1-{[(phenylmethyl)oxy]methyl}-2-{[4-(phenyloxy)phenyl]amino}ethyl)-2-(pyrimidin-2-ylthio)acetamide]"
8,6.00 to 6.52,"COc1ccc(OC)c(C(=O)NC(COCc2ccccc2)C(=O)Nc2ccc(Oc3ccccc3)cc2)c1 (stereo not shown) [Compound 332, 2,5-bis(methyloxy)-N-(2-oxo-1-{[(phenylmethyl)oxy]methyl}-2-{[4-(phenyloxy)phenyl]amino}ethyl)benzamide]"
9,< 6.00,"CS(=O)(=O)c1ccc(C(=O)NC(COCc2ccccc2)C(=O)Nc2ccc(Oc3ccccc3)cc2)cc1 (stereo not shown) [Compound 333, 4-(methylsulfonyl)-N-(2-oxo-1-{[(phenylmethyl)oxy]methyl}-2-{[4-(phenyloxy)phenyl]amino}ethyl)benzamide]"
10,< 6.00,"CS(=O)(=O)c1ccc(C(=O)NC(COCc2ccccc2)C(=O)Nc2ccc(Oc3ccccc3)cc2)c(Cl)c1 (stereo not shown) [Compound 334, 2-chloro-4-(methylsulfonyl)-N-(2-oxo-1-{[(phenylmethyl)oxy]methyl}-2-{[4-(phenyloxy)phenyl]amino}ethyl)benzamide]"
11,< 6.00,"O=C(CN1C(=O)CSC1=S)NC(COCc1ccccc1)C(=O)Nc1ccc(Oc2ccccc2)cc1 (stereo not shown) [Compound 335, N-(2-oxo-1-{[(phenylmethyl)oxy]methyl}-2-{[4-(phenyloxy)phenyl]amino}ethyl)-2-(4-oxo-2-thioxothiazolidin-3-yl)acetamide]"
12,≥ 6.52,"O=C(NC(COCc1ccccc1)C(=O)Nc1ccc(Oc2ccccc2)cc1)C1CCOC1 (stereo not shown) [Compound 336, N-(2-oxo-1-{[(phenylmethyl)oxy]methyl}-2-{[4-(phenyloxy)phenyl]amino}ethyl)tetrahydrofuran-3-carboxamide]"
13,< 6.00,"COCCC(=O)NC(COCc1ccccc1)C(=O)Nc1ccc(Oc2ccccc2)cc1 (stereo not shown) [Compound 337, N-(2-oxo-1-{[(phenylmethyl)oxy]methyl}-2-{[4-(phenyloxy)phenyl]amino}ethyl)-3-methoxypropanamide]"
14,< 6.00,"CCOCC(=O)NC(COCc1ccccc1)C(=O)Nc1ccc(Oc2ccccc2)cc1 (stereo not shown) [Compound 338, N-(2-oxo-1-{[(phenylmethyl)oxy]methyl}-2-{[4-(phenyloxy)phenyl]amino}ethyl)-2-ethoxyacetamide]"
15,< 6.00,"CN(C)C(=O)CCC(=O)NC(COCc1ccccc1)C(=O)Nc1ccc(Oc2ccccc2)cc1 (stereo not shown) [Compound 339, N,N-dimethyl-N′-(2-oxo-1-{[(phenylmethyl)oxy]methyl}-2-{[4-(phenyloxy)phenyl]amino}ethyl)butanediamide]"
16,6.00 to 6.52,"CN(CC(=O)NC(COCc1ccccc1)C(=O)Nc1ccc(Oc2ccccc2)cc1)C(=O)c1ccccc1 (stereo not shown) [Compound 340, N-(2-oxo-1-{[(phenylmethyl)oxy]methyl}-2-{[4-(phenyloxy)phenyl]amino}ethyl)-N-benzoyl-N-methylaminoacetamide]"
17,< 6.00,"O=C(NC(COCc1ccccc1)C(=O)Nc1ccc(Oc2ccccc2)cc1)c1c[nH]c2ccccc12 (stereo not shown) [Compound 341, N-(2-oxo-1-{[(phenylmethyl)oxy]methyl}-2-{[4-(phenyloxy)phenyl]amino}ethyl)-1H-indole-3-carboxamide]"
18,< 6.00,"O=C(NC(COCc1ccccc1)C(=O)Nc1ccc(Oc2ccccc2)cc1)c1ccc2[nH]cnc2c1 (stereo not shown) [Compound 342, N-(2-oxo-1-{[(phenylmethyl)oxy]methyl}-2-{[4-(phenyloxy)phenyl]amino}ethyl)-1H-benzimidazole-5-carboxamide]"
19,< 6.00,"CCOc1ccc(CC(=O)NC(COCc2ccccc2)C(=O)Nc2ccc(Oc3ccccc3)cc2)cc1 (stereo not shown) [Compound 343, N-(2-oxo-1-{[(phenylmethyl)oxy]methyl}-2-{[4-(phenyloxy)phenyl]amino}ethyl)-2-(4-ethoxyphenyl)acetamide]"
20,< 6.00,"C#CCCC(=O)NC(COCc1ccccc1)C(=O)Nc1ccc(Oc2ccccc2)cc1 (stereo not shown) [Compound 344, N-(2-oxo-1-{[(phenylmethyl)oxy]methyl}-2-{[4-(phenyloxy)phenyl]amino}ethyl)pent-4-ynamide]"
21,< 6.00,"CCCOc1ccc(C(=O)NC(COCc2ccccc2)C(=O)Nc2ccc(Oc3ccccc3)cc2)cc1 (stereo not shown) [Compound 345, N-(2-oxo-1-{[(phenylmethyl)oxy]methyl}-2-{[4-(phenyloxy)phenyl]amino}ethyl)-4-(propyloxy)benzamide]"
22,6.00 to 6.52,"CCCCC(C)C(=O)NC(COCc1ccccc1)C(=O)Nc1ccc(Oc2ccccc2)cc1 (stereo not shown) [Compound 346, 2-methyl-N-(2-oxo-1-{[(phenylmethyl)oxy]methyl}-2-{[4-(phenyloxy)phenyl]amino}ethyl)hexanamide]"
23,< 6.00,"CC(=O)CCC(=O)NC(COCc1ccccc1)C(=O)Nc1ccc(Oc2ccccc2)cc1 (stereo not shown) [Compound 347, 4-oxo-N-(2-oxo-1-{[(phenylmethyl)oxy]methyl}-2-{[4-(phenyloxy)phenyl]amino}ethyl)pentanamide]"
24,6.00 to 6.52,"COc1ccc(CCC(=O)NC(COCc2ccccc2)C(=O)Nc2ccc(Oc3ccccc3)cc2)cc1OC (stereo not shown) [Compound 348, N-(2-oxo-1-{[(phenylmethyl)oxy]methyl}-2-{[4-(phenyloxy)phenyl]amino}ethyl)-3-(3,4-dimethoxyphenyl)propanamide]"
25,6.00 to 6.52,"O=C(CCC(=O)c1ccccc1)NC(COCc1ccccc1)C(=O)Nc1ccc(Oc2ccccc2)cc1 (stereo not shown) [Compound 349, 4-oxo-N-(2-oxo-1-{[(phenylmethyl)oxy]methyl}-2-{[4-(phenyloxy)phenyl]amino}ethyl)-4-phenylbutanamide]"
